Experimental data as given in patent US8871767B2, “2-arylimidazo[1,2-B]pyridazine, 2-phenylimidazo[1,2-A]pyridine, and 2-phenylimidazo[1,2-A]pyrazine derivatives” (Hengrui (USA) Ltd., priority 2010, dated 2014).
Read-outs that look alike come from different tables or passages of the source.

How the values were obtained:
[1] = test system: Hedgehog pathway activation on 10T1/2/Smo#3 cells (C3H10T1/2 cells transfected with human Smoothened receptor); assay: Hedgehog pathway activation on 10T1/2/Smo#3 cells measured by ALP activity; assay type: cell-based; settings: Mus musculus, C3H 10T1/2, 10T1/2/Smo#3 cells
Procedure: Hedgehog conditioned media was obtained by transfecting 293H cells with the full length gene encoding human Sonic Hedgehog (hShh) inserted into the pCMV6 expression vector, which contains a neomycin selectable marker and expresses the protein of interest with a C-terminal FLAG affinity tag. After selection in G418 containing media, conditioned media from Hedgehog expressing clones were tested for the ability to activate the hedgehog-responsive GLi-luciferase reporter in the Shh Light II cell line obtained by license from John Hopkins University (Taipale J, et al. Effects of oncogenic mutations in Smoothened and Patched can be reversed by cyclopamine. Nature 406: 1005-1009, 2000).
C3H10T1/2 cells were transfected with a pCMV expression vector containing the full length gene sequence encoding the human Smoothened receptor. Pooled cells, designated 10T1/2/Smo#3, growing in G418 selection media responded to activation by 10-20% conditioned hShh media with an approximate 5-10 fold increase in alkaline phosphaste (ALP) activity over untransfected parent C3H10T1/2 cells as measured by the conversion of the free acid of 4-methylumbelliferyl phosphate to a fluorescent product.
A test compound library was screened against hShh and 500 nM SAG (a direct agonist of the Smoothened receptor) activated 10T1/2/Smo#3 cells and Shh Light II reporter cells for the ability to block Hedgehog pathway activation. Concurrently, cell viability was measured by utilizing Celltiter-Blue® (Promega, Madison Wis.) viability assay. Active compounds were defined as those that inhibited Hedgehog signaling by greater than 50% with no concurrent loss in cell viability.
Their inhibitory activity against Hedgehog pathway activation on 10T1/2/Smo#3 cells as measured by ALP activity and Shh Light II reporter cells as measured by luciferase activity is shown in Table 1 below. In Table 1, +++ stands for an IC50 value that is less than 0.3 μM, ++ between 0.3 and 3 μM, + between 3 and 30 μM.
Additional data for compounds of the invention is shown below in Table 2. Their inhibitory activities against Hedgehog pathway activation are shown as IC50 values in μM on 10T1/2/Smo#3 cells as measured by ALP activity, or on Shh Light II reporter cells as measured by luciferase activity (hShh activation).

[2] = test system: Hedgehog pathway activation (GLi-luciferase reporter) in Shh Light II reporter cells; assay: Hedgehog pathway activation on Shh Light II reporter cells measured by luciferase activity; assay type: cell-based; settings: Mus musculus, Shh Light II
How it was run: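 Shh Light II reporter cells carrying a hedgehog-responsive GLi-luciferase reporter were stimulated either with 500 nM SAG, a direct Smoothened agonist, or with conditioned media containing human Sonic Hedgehog (hShh). Test compounds were evaluated for blocking this pathway activation, quantified by luciferase activity. Cell viability was monitored in parallel with the Celltiter-Blue® assay.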

[3] = hShh activation, ALP activity, read-out: 10T1/2/Smo#3 ALP activity (hShh Activation)
[4] = SAG activation (500 nM SAG), read-out: Shh Light II luciferase activity (SAG activation)
[5] = hShh activation, read-out: Shh Light II luciferase activity (hShh activation)
[6] = measured by ALP activity, read-out: ALP (IC50, inhibition of Hedgehog pathway activation)
[7] = hShh activation, read-out: Shh (IC50, inhibition of Hedgehog pathway activation)

| SMILES | IC50 [1, 3] [µM] | IC50 [2, 4] [µM] | IC50 [2, 5] [µM] | IC50 [1, 6] [µM] | IC50 [2, 7] [µM] |
| --- | --- | --- | --- | --- | --- |
| COc1ccc2nc(-c3ccc(C)c(NC(=O)C(C)(C)C)c3)cn2n1 [Example 4, N-(5-(6-methoxyimidazo[1,2-b]pyridazin-2-yl)-2-methylphenyl)pivalamide] | 0.3 to 3 | 0.3 to 3 | 3 to 30 |  |  |
| CC(C)(C)C(=O)Nc1cc(-c2cn3cc(Cl)ccc3n2)ccc1C(F)(F)F [Example 81, N-(5-(6-chloroimidazo[1,2-a]pyridin-2-yl)-2-(trifluoromethyl)phenyl)pivalamide] | 0.3 to 3 | 0.3 to 3 | 0.3 to 3 | 2.43 | 1.07 |
| CC(C)(C)C(=O)Nc1cc(-c2cn3cc(-c4ccccc4F)ccc3n2)ccc1C(F)(F)F [Example 83, N-(5-(6-(2-fluorophenyl)imidazo[1,2-a]pyridin-2-yl)-2-(trifluoromethyl)phenyl)pivalamide] | 0.3 to 3 | 0.3 to 3 | 0.3 to 3 | 1.35 | 1.01 |
| CC(C)(C)C(=O)Nc1cc(-c2cn3cc(-c4cc(C(F)(F)F)ccc4F)ccc3n2)ccc1C(F)(F)F [Example 84, N-(5-(6-(2-fluoro-5-(trifluoromethyl)phenyl)imidazo[1,2-a]pyridin-2-yl)-2-(trifluoromethyl)phenyl)pivalamide] |  |  |  | 2.49 | 1.58 |
| CC(C)(C)C(=O)Nc1cc(-c2cn3cc(Cl)ncc3n2)ccc1C(F)(F)F [Example 85, N-(5-(6-chloroimidazo[1,2-a]pyrazin-2-yl)-2-(trifluoromethyl)phenyl)pivalamide] |  |  |  | 1.32 | 4.39 |
| CC(C)(C)C(=O)Nc1cc(-c2cn3cc(-c4ccccc4F)ncc3n2)ccc1C(F)(F)F [Example 86, N-(5-(6-(2-fluorophenyl)imidazo[1,2-a]pyrazin-2-yl)-2-(trifluoromethyl)phenyl)pivalamide] | < 0.3 | 0.3 to 3 | < 0.3 | 0.547 | 0.53 |
| Cc1ccc(-c2cn3cccnc3n2)cc1NC(=O)CC(C)(C)C [Example 89, N-(5-(imidazo[1,2-a]pyrimidin-2-yl)-2-methylphenyl)-3,3-dimethylbutanamide] | 3 to 30 | 3 to 30 | 3 to 30 |  |  |
| Cc1c(-c2cccc(NC(=O)C3CCCCC3)c2)nc2ncccn12 [Example 92, N-(3-(3-methylimidazo[1,2-a]pyrimidin-2-yl)phenyl)cyclohexanecarboxamide] | 3 to 30 | 3 to 30 | 3 to 30 |  |  |
| COc1ccc2nc(-c3ccc(C)c(NC(=O)c4ccccc4)c3)cn2n1 [Example 97, N-(5-(6-methoxyimidazo[1,2-b]pyridazin-2-yl)-2-methylphenyl)benzamide] |  |  |  | 1.12 | 0.679 |
| CC(C)(C)C(=O)Nc1cc(-c2cn3nc(Cl)ccc3n2)ccc1OC(F)(F)F [Example 245, N-(5-(6-chloroimidazo[1,2-b]pyridazin-2-yl)-2-(trifluoromethoxy)phenyl)pivalamide] |  |  |  | 2.97 |  |
| CCCCOc1ccc2nc(-c3ccc(OC(F)(F)F)c(NC(=O)C(C)(C)C)c3)cn2n1 [Example 249, N-(5-(6-butoxyimidazo[1,2-b]pyridazin-2-yl)-2-(trifluoromethoxy)phenyl)pivalamide] |  |  |  | 0.889 |  |
| CC(C)Oc1ccccc1-c1ccc2nc(-c3ccc(C(F)(F)F)c(NC(=O)C(C)(C)C)c3)cn2n1 [Example 251, N-(5-(6-(2-isopropoxyphenyl)imidazo[1,2-b]pyridazin-2-yl)-2-(trifluoromethyl)phenyl)pivalamide] |  |  |  | 0.518 |  |
| CC(=O)c1cccc(-c2ccc3nc(-c4ccc(C(F)(F)F)c(NC(=O)C(C)(C)C)c4)cn3n2)c1 [Example 254, N-(5-(6-(3-acetylphenyl)imidazo[1,2-b]pyridazin-2-yl)-2-(trifluoromethyl)phenyl)pivalamide] |  |  |  | 0.36 |  |
| CCOC(=O)c1ccccc1-c1ccc2nc(-c3ccc(C(F)(F)F)c(NC(=O)C(C)(C)C)c3)cn2n1 [Example 257, ethyl 2-(2-(3-pivalamido-4-(trifluoromethyl)phenyl)imidazo[1,2-b]pyridazin-6-yl)benzoate] |  |  |  | 0.497 |  |
| CC1CN(c2ccc3nc(-c4ccc(OC(F)(F)F)c(NC(=O)C(C)(C)C)c4)cn3n2)CC(C)O1 (centres unmarked) [Example 266, N-(5-(6-(2,6-dimethylmorpholino)imidazo[1,2-b]pyridazin-2-yl)-2-(trifluoromethoxy)phenyl)pivalamide] |  |  |  | 1.53 |  |
| CC(C)(C)C(=O)Nc1cc(-c2cn3nc(N4CCN(S(C)(=O)=O)CC4)ccc3n2)ccc1OC(F)(F)F [Example 268, N-(5-(6-(4-(methylsulfonyl)piperazin-1-yl)imidazo[1,2-b]pyridazin-2-yl)-2-(trifluoromethoxy)phenyl)pivalamide] |  |  |  | 1.94 |  |
| CC(C)(C)C(=O)Nc1cc(-c2cn3nc(-c4ccccc4F)ccc3n2)ccc1C1CC1 [Example 271, N-(2-cyclopropyl-5-(6-(2-fluorophenyl)imidazo[1,2-b]pyridazin-2-yl)phenyl)pivalamide] |  |  |  | 0.246 |  |

Continued, values first:

| IC50 [1, 3] [µM] | IC50 [2, 4] [µM] | IC50 [2, 5] [µM] | IC50 [1, 6] [µM] | IC50 [2, 7] [µM] | SMILES |
| --- | --- | --- | --- | --- | --- |
|  |  |  | > 10 | 6.06 | CC(C)(C)C(=O)Nc1cc(-c2cn3ccc(Cl)cc3n2)ccc1C(F)(F)F [Example 82, N-(5-(7-chloroimidazo[1,2-a]pyridin-2-yl)-2-(trifluoromethyl)phenyl)pivalamide] |
|  |  |  | 1.52 | 0.614 | COc1ccc2nc(-c3ccc(C)c(NC(=O)C(C)(C)C)c3)cn2n1 [Example 94, N-(5-(6-methoxyimidazo[1,2-b]pyridazin-2-yl)-2-methylphenyl)pivalamide] |
| 0.3 to 3 | 0.3 to 3 | 0.3 to 3 | 1.09 | 0.398 | COc1ccc2nc(-c3ccc(C)c(NC(=O)c4ccccc4F)c3)cn2n1 [Example 96, 2-fluoro-N-(5-(6-methoxyimidazo[1,2-b]pyridazin-2-yl)-2-methylphenyl)benzamide] |
|  |  |  | 2.04 | 1.34 | COc1ccc2nc(-c3ccc(C)c(NC(=O)c4ccc(F)cc4Cl)c3)cn2n1 [Example 98, 2-chloro-4-fluoro-N-(5-(6-methoxyimidazo[1,2-b]pyridazin-2-yl)-2-methylphenyl)benzamide] |
|  |  |  | 1.32 |  | CCOc1ccc2nc(-c3ccc(OC(F)(F)F)c(NC(=O)C(C)(C)C)c3)cn2n1 [Example 246, N-(5-(6-ethoxyimidazo[1,2-b]pyridazin-2-yl)-2-(trifluoromethoxy)phenyl)pivalamide] |
|  |  |  | 0.259 |  | C[C@@H]1CN(c2ccc3nc(-c4ccc(C(F)(F)F)c(NC(=O)C(C)(C)C)c4)cn3n2)C[C@H](C)O1 [Example 250, N-(5-(6-(2,6-dimethylmorpholino)imidazo[1,2-b]pyridazin-2-yl)-2-(trifluoromethyl)phenyl)pivalamide] |
|  |  |  | 2.08 |  | CC(C)(C)C(=O)Nc1cc(-c2cn3nc(N4CCOCC4)ccc3n2)ccc1OC(F)(F)F [Example 267, N-(5-(6-morpholinoimidazo[1,2-b]pyridazin-2-yl)-2-(trifluoromethoxy)phenyl)pivalamide] |
|  |  |  | 1.01 |  | CC(C)(C)C(=O)Nc1cc(-c2cn3nc(N4CCC(O)CC4)ccc3n2)ccc1OC(F)(F)F [Example 269, N-(5-(6-(4-hydroxypiperidin-1-yl)imidazo[1,2-b]pyridazin-2-yl)-2-(trifluoromethoxy)phenyl)pivalamide] |
|  |  |  | 9.43 |  | CC(C)(C)C(=O)Nc1cc(-c2cn3nc(Cl)ccc3n2)ccc1C1CC1 [Example 270, N-(5-(6-chloroimidazo[1,2-b]pyridazin-2-yl)-2-cyclopropylphenyl)pivalamide] |
|  |  |  | 1.26 |  | CCOc1ccc2nc(-c3ccc(C4CC4)c(NC(=O)C(C)(C)C)c3)cn2n1 [Example 272, N-(2-cyclopropyl-5-(6-ethoxyimidazo[1,2-b]pyridazin-2-yl)phenyl)pivalamide] |
|  |  |  | 1.53 |  | C[C@@H]1CN(c2ccc3nc(-c4ccc(OC(F)(F)F)c(NC(=O)C(C)(C)C)c4)cn3n2)C[C@H](C)O1 [Example 463, N-(5-(6-((2R,6S)-2,6-dimethylmorpholino)imidazo[1,2-b]pyridazin-2-yl)-2-(trifluoromethoxy)phenyl)pivalamide] |
